For data set [1], the system named is Raji cells. As to the kind of experiment: Complement-mediated killing of Raji cells in the presence of rituximab and serum from genotyped donors. The format is cell-based, human. On the procedure:
FIG. 1—Percentage of live Raji cells after 72 hours incubation in the presence of rituximab and serum from donors with known C1qA[276] genotype.
(§1) C1qA polymorphism correlates with the ability of complement to opsonize and kill target cells in the presence of therapeutic antibodies. The inventors collected and coded serum samples from 10 healthy donors previously genotyped for C1qA[276A/G] polymorphism. The sera were extensively analyzed for function of complement and ability to opsonize target cells by members of an outside collaborative research group blinded to the identity of the donors and the C1q genotype. The results from killing experiments are presented in summary in FIG. 1. The experiments were designed to determine the ability of the complement from human sera to lyse and thus limit the proliferation of Raji cells, a CD20 expressing B-cell lymphoma cell line, in the presence of rituximab, an anti-CD20 monoclonal with extensive application in clinical therapy of lymphoma. […] The inventors are currently in the process of collecting additional sera for testing. In a one-way ANOVA, p value is 0.086 at this point. Assuming future results will go with the trend observed, the ANOVA test will be in the 0.002 range if only 2 homozygous of each kind are added, and excluding the heterozygous. A better test for this type of data would be Dunn's multiple comparison test. […]

The subject of data set [2] is follicular lymphoma. As to the kind of experiment: Single agent rituximab therapy of follicular lymphoma, outcome by C1qA[276], CD32 and CD16 polymorphism. In kind it is in vivo, human. On the procedure:
A polymorphism in the C1qA component of complement correlates with prolonged complete remission following rituximab therapy of follicular lymphoma. The non-coding polymorphism at C1qA[276] was examined in 90 patients with follicular lymphoma who were treated with rituximab (single agent) to assess whether a correlation exists between this genetic polymorphism of the complement pathway and clinical effectiveness of rituximab. The presence of an A versus a G allele at the C1qA[276] locus was determined using restriction fragment length polymorphism analysis by investigators blinded to the clinical outcome of the patients. The molecular and clinical data was then analyzed according to C1qA polymorphism, including measurement of radiographic response and duration of response, using methods similar to those used to evaluate the correlation between polymorphisms in CD16/CD32 genes and clinical outcome.
However, prolonged remission was noted among those subjects that achieved remission (either partial or complete response) for individuals who were carriers of the A allele at the C1qA[276] locus (AA or AG) compared to homozygous GG subjects. The strongest correlation was found among those subjects that achieved a complete remission to single agent rituximab. […] A allele was an independent factor for good prognosis, while FcγRIIIa 158 phenylalanine carrier and FcγRIIa 131 arginine carrier indicated poor survival. Thus, the relative risk was 0.2 for C1qA[276] AA/AG versus GG after controlling for CD32 and CD16 polymorphisms. The relative risks were 4.8 for CD32 HR versus HH and 6.16 for CD32 RR versus HH after controlling for complement and CD16 polymorphisms. The relative risks were 4.57 for CD16 VF against VV and 3.69 for CD16 FF versus VV after controlling for complement and CD32 polymorphisms.

Data set [3] has as its system C3b deposition on B-cell surface. The data set is described as follows: C3b opsonization of target cells in the presence of rituximab and donor serum (flow cytometry). The note with it: serum from homozygous A donors. The format is cell-based, human.
Description: FIG. 2—Level of C3b opsonization of B-cell surface in the presence of rituximab and serum from individuals with known C1qA[276] genotype.
as §1

For data set [4] the following is noted: multiphasic clearance from plasma; cited from earlier work.
The conditions of data set [5]: patients with creatinine clearance >35 mL per minute; cited from earlier work.
For data set [6] the following is noted: cited from earlier work.

Like-named read-outs stand apart in the source and are kept apart here.

Turning to “Rituximab: monoclonal antibody that targets CD20, which is found on more than 90% of non-Hodgkin's lymphomas”, the “average lysis of Raji cells” value in data set [1] (heterozygous sera) is on record as “moderate efficiency”. In addition, the “ability of serum complement to lyse Raji cells” value in data set [1] (serum of homozygous C1qA[276A] donors versus homozygous G, 72 hours, p<0.04) is recorded as “significant decrease”. Moreover, the “difference in response rate based on C1qA polymorphisms” value in data set [2] (90 follicular lymphoma patients, single agent) was “No statistically significant difference”. For the same compound, the time to progression in data set [2] (C1qA[276] AA/AG subjects who achieved complete remission) was found to be 830 days; in data set [2] (C1qA[276] GG subjects who achieved complete remission), 250 days. Also, the relative risk in data set [2] (C1qA[276] AA/AG versus GG, controlling for CD32 and CD16 polymorphisms) came out at 0.2; in data set [2] (CD16 FF versus VV, controlling for complement and CD32 polymorphisms) it was 3.69; in data set [2] (CD16 VF against VV, controlling for complement and CD32 polymorphisms), 4.57; in data set [2] (CD32 HR versus HH, controlling for complement and CD16 polymorphisms) it was 4.8; in data set [2] (CD32 RR versus HH, controlling for complement and CD16 polymorphisms), 6.16. The “HR (time to progression)” value in data set [2] (GG versus AA/AG, complete remission group, 95% CI=2.1-96.9) stood at 4.1. In data set [3], the “deposition of C3b molecules on the surface of target cells” value is reported as “least efficient”.

As for `CC[C@]1(O)C[C@H]2CN(CCc3c([nH]c4ccccc34)[C@@](C(=O)OC)(c3cc4c(cc3OC)N(C=O)[C@H]3[C@@](O)(C(=O)OC)[C@H](OC(C)=O)[C@]5(CC)C=CCN6CC[C@]43[C@@H]65)C2)C1` [Vincristine], in data set [4], the terminal half-life entry was “about 24 hr”.

With Bleomycin, in data set [5], the “serum or plasma terminal elimination half-life” value is recorded as “approximately 115 min”. Besides, the tissue concentration entry in data set [6] (hematopoietic tissue / bone marrow) is recorded as “low concentrations”; in data set [6] (mice, skin, lungs, kidneys, peritoneum, lymphatics), “high concentrations”.

(Values after patent US20070191262A1, “Cancer Therapy and Prevention Based on Modulation of Complement activity” (University of Iowa Research Foundation, priority 2005, published 2007).)
